For assay [1], the system named is ZR75/AGP-763 human mammary cell line (CAT induction). Briefly: Antiglucocorticoid effect: inhibition of dexamethasone-induced CAT in ZR75/AGP-763 cells. The settings on record: ZR 75/AGP-763; 10^-7 M dexamethasone; wide range of concentrations. The assay is classed as cell-based. The text has this: FIG. 2. is a graph showing the antiglucocorticoid effect of J 867 (Example 1) in comparison to RU 486. The graph depicts the inhibition of CAT induction in a human mammary cell line (the ZR75/AGP-763 cell line) which were induced by 10^-7 M dexamethasone. The graph indicates the log molar antagonist concentration in the x-axis versus the maximum CAT induction as a percentage in the y-axis. The results for dexamethasone is shown as dashed lines (- - -), the IC50 is shown in solid line (----), RU 486 is shown as open boxes (.quadrature.), and J 867 is shown with closed boxes (.box-solid.).
FIG. 2 depicts the antiglucocorticoid effect produced by J 867 in the ZR 75/AGP-763 line of human mammary cells compared with that of RU 486.
In this cell line, dexamthasone induces the chloroamphenicol acetyl transferase gene (CAT). This induction is inhibited by antiglucocorticoid substances.
Antiglucocorticoid effect of J867 in the ZR75/AGP-763 line of human mammary cells
The cell culture experiments were carried out in RPMI 1640 added with 10% foetal calf serum (FCS) using an incubator cabinet containing 95% air and 5% CO2 at 37° C. The cells were spread in 60 mm Petri dishes. […] CAT was determined using a Boehringer ELISA according to the instructions for quantitative CAT determination of transfected cells.

The test system of assay [2] is uterine weight in cyclic guinea pigs. As to the kind of experiment: Influence on uterine weight in cyclic guinea pigs. It is filed as in vivo, guinea pig. The source says: FIG. 1. is a chart showing a comparison of the influence on uterine weight in cyclic guineau pigs when treated with the antigestagen agents RU 486, a control (the vehicle), and a compound of the present invention, J 867 (as prepared in accordance with Example 1).
FIG. 1 compares the influence of antigestagen treatment of cyclic guinea pigs on uterine weights for J 867 and RU 486.
Treatment of female guinea pigs with antigestagen
Treatment of adult female guinea pigs from day 10 to day 18 of the cycle (autopsy). Administration of the specified doses using subcutaneous osmotic pumps (Type 2 ML1 ALZET). Vehicle: […] propylene glycol/24 hrs.

The subject of assay [3] is early gravidity in the rat. As to the kind of experiment: Early abortive effect / inhibition of early gravidity in the rat. It is filed as in vivo. The settings on record: for complete gravidity inhibition % / complete gravidity inhibition N*/N (females not pregnant/inseminated females): empty uteri. The procedure: Inhibition of early gravidity in the rat
Female rats are mated in the pro-oestrus. If semen is found in the vaginal smear on the next day, this day is counted as day 1 (=d1) of the gravidity. Treatment with the test substance or vehicle is applied on d5-d7, autopsy is carried out on d9. The substances are injected subcutaneously in 0.2 ml of vehicle (benzyl benzoate/castor oil 1+4).

In assay [4] the target is T1, oestrogen receptor (Oryctolagus cuniculus, UniProt G1SML6).
T1 construct: uterine cytosol of the immature rabbit; from tissue; host or cells: uterus (cytosol) of immature rabbit
T1 sequence (G1SML6 1-598): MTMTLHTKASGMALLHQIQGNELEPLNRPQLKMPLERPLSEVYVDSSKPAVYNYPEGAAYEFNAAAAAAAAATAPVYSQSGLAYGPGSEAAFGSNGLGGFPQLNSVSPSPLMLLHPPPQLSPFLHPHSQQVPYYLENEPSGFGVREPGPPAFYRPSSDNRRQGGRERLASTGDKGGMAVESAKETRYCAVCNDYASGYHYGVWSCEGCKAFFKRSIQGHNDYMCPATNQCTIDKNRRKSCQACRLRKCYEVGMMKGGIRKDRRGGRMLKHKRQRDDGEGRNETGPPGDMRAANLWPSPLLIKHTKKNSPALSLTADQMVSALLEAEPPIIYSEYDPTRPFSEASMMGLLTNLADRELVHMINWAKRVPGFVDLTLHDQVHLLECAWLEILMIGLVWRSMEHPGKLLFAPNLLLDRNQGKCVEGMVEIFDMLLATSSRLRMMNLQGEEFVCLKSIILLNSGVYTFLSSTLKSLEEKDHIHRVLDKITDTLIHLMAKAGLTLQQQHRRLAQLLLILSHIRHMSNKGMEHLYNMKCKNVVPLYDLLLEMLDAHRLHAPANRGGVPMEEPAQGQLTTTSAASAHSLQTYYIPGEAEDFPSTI
As to the kind of experiment: relative molar bonding affinity to oestrogen receptor (competitive bonding). It is filed as binding. To be noted: estradiol = 100%; uterine cytosol of immature rabbit; 3H-ethinyl estradiol, 3 nM; 18 h, 0-4° C. The procedure: Measurement of bonding affinity for receptors
Receptor bonding affinity was determined by competitive bonding of a specifically binding ^3 H labelled hormone (tracer) and the compound to be tested to receptors in the cytosol from animal target organs. It was tried to obtain receptor saturation and a balanced reaction. The following incubation conditions were selected:
Oestrogen receptor: uterine cytosol of the immature rabbit, kept at -30° C. in TED buffer with 250 mM of saccharose. Tracer: ^3 H-ethinyl estradiol, 3 nM; reference substance: 17β-estradiol.
After an incubation period of 18 hours at 0°-4° C., bonded and free steroid was separated by mixing in active carbon/dextrane (1%/0.1%), centrifuging off and measuring the bonded ^3 H activity in the supernatant.
The IC50 for the compound to be tested and for the reference substance were determined from measurements in series of concentrations. The quotient of both values (×100%) is the relative molar bonding affinity.

The mark [5] stands for this setting: 0.3 mg/animal/day s.c., 5th to 7th day of pregnancy.
Setting [6] is: 1.0 mg/animal/day s.c., 5th to 7th day of pregnancy.
Where [7] appears, read: 3.0 mg/animal/day s.c., 5th to 7th day of pregnancy.

This note sets out measurements from patent publication US5693628A, “11-benzaldoxime-estra-diene derivatives, methods for their production and pharmaceuticals containing these compounds” (priority 1994, dated 1997).

In the case of `COC[C@]1(OC)CC[C@H]2[C@@H]3CCC4=CC(=O)CCC4=C3[C@@H](c3ccc(C=NO)cc3)C[C@@]21C` [Example 1, 11β-[4-(hydroximinomethyl)phenyl]-17β-methoxy-17α-methoxymethyl-estra-4,9-diene-3-on], the “inhibition of CAT compared with RU 486” value in assay [1] is “inhibits CAT over a wide range of concentrations to a lesser extent than RU 486”. Further, the “inhibition of uterine weights of cyclic guinea pigs, all doses” value in assay [2] (1, 3, and 6 mg/24 hrs, s.c. osmotic pump, day 10 to 18 of cycle) is “inhibited uterine weights to a statistically significant extent”. The “uterine weights in the anovulatorial cycle in guinea pigs” value in assay [2] (doses at which RU 486 increases uterine weights, compared with control animals) is given as “significantly reduced uterine weights”. For the same compound, the entries for the “complete gravidity inhibition %” value in assay [3] (setting [5]), in assay [3] (setting [6]) and in assay [3] (setting [7]) were 0%, 100% and 100%, respectively. The “complete gravidity inhibition N*/N (females not pregnant/inseminated females)” value in assay [3] (setting [5]) is 0/5; in assay [3] (setting [6]), 5/5; in assay [3] (setting [7]), 5/5. Moreover, in assay [3] (s.c., 5th to 7th day of pregnancy, graphic determination), the “ED 50” value was 0.6 mg/animal/day. Also, the “inhibition capability of nidation as compared to RU 486 (factor)” value in assay [3] (s.c., d5-d7, autopsy d9, factor compared to RU 486) is recorded as 3. Moreover, the “relative molar bonding affinity (RBA) to oestrogen rec.” value in assay [4] is less than 0.1%.
